Data from patent US20120167671A1, “METHOD AND APPARATUS FOR TESTING TRANSDERMAL MEDICAMENTS” (EGIS GYOGYSZERGYAR NYILVANOSAN MUKODO RESZVENYTARSASAG, priority 2009, published 2012).

Assay: Membrane penetration testing of piroxicam-containing cream, human skin membrane, test series (II)
Format: in vitro ADME
Details: 1% piroxicam cream, 34° C., no air flow
Procedure: In the test, the acceptor phase comprises 0.9 weight % sodium chloride solution. The flow rate of the acceptor phase is 0.3 ml/min. During the first test series (I), a cellophane membrane, during the second test series (II), a human skin membrane was used. Temperature of the cell was kept at 34° C. During both test series, the cell was exposed to natural sunlight. No air flow was applied. The membrane was allowed to stabilize for 60 minutes. After the stabilization period, 300 to 400 mg of test preparation measured by analytical precision are applied to the membrane homogeneously in 2-3 seconds. The flow of the acceptor phase is resumed and effluent fractions for periods of 30 minute each are collected. […] The high-performance liquid chromatographic analysis is carried out using external standard method in a reversed phase system. The separation is carried out using a Nucleosil C18 (250 mm×4.6 mm i.d.) column and a buffer-acetonitrile-methanol (1000:660:340, v/v/v) mobile phase. The separation is performed at the temperature of 40° C. Flow rate of the mobile phase is 1.0 ml/min. Detection is carried out by ultraviolet photodiode array detector in the wavelength range of 250 to 450 nm.

For `CN1C(C(=O)Nc2ccccn2)=C(O)c2ccccc2S1(=O)=O` [piroxicam], the “Cumulative amount of dissolved piroxicam, % Series (II)” value (shortened to “Cumulative amount … % Series (II)”) (fraction 1, 0-30 min) was 0.00%, the “Cumulative amount … % Series (II)” value (fraction 2, 30-60 min) was 0.00% and the “Cumulative amount … % Series (II)” value (fraction 3, 60-90 min) was 0.00%. For the same compound, the “Cumulative amount … % Series (II)” value (fraction 4, 90-120 min) was 0.00%, the “Cumulative amount … % Series (II)” value (fraction 5, 120-150 min) was 0.01% and the “Cumulative amount … % Series (II)” value (fraction 6, 150-180 min) was 0.02%. For the same compound, the “Cumulative amount … % Series (II)” value (fraction 7, 180-210 min) was 0.02%, the “Cumulative amount … % Series (II)” value (fraction 8, 210-240 min) was 0.03% and the “Cumulative amount … % Series (II)” value (fraction 9, 240-270 min) was 0.04%. The “Cumulative amount … % Series (II)” value (fraction 10, 270-300 min) was 0.05%, the “Cumulative amount … % Series (II)” value (fraction 11, 300-330 min) was 0.05% and the “Cumulative amount … % Series (II)” value (fraction 12, 330-360 min) was 0.06%.
